Experimental data: patent publication US20260263505A1, “Uses of Compositions Comprising a Prebiotic Component” (Mead Johnson Nutrition Company, priority 2021, published 2026)

System: male Sprague Dawley rats
Test: Telemetric sleep/wake recording at baseline and after inescapable tail shock stress, following early life diet (P21-P51)
Type: in vivo, rat
Settings: mean ± SEM
Excerpt: The aim of this study was to investigate the extent to which early life dietary oligosaccharides and/or polydextrose (PDX+GOS) modulate sleep and protect sleep architecture following stress.
Timed-pregnant female Sprague Dawley rats were purchased from Charles River Laboratories International, Inc., (Hollister, CA and Canada). Male pups were weaned at postnatal day 21 (P21) and randomised into one of five treatment groups (see Table 6 below). All rats were housed in a temperature-controlled recording room under a 12 hour light: dark cycle with food and water available ad libitum. Environmental conditions were regulated, and room temperature (24±2° C.), humidity (50±20% relative humidity), and lighting were monitored and recorded. Animals were inspected daily.
All experimenters were blind to type of diet administered to each group. The diets were formulated by Mead Johnson Nutrition (MJN, Evansville IN) based on AlN-93G specifications to be isocaloric and have similar carbohydrate, protein, fat, vitamin and mineral levels. Experimental diets contained 7.0 g/kg galactooligosaccharides (GOS), 7.0 g/kg polydextrose (PDX) and/or 2.2 g/kg sialyllactose (SL). Diets were produced by Envigo (Indianapolis, IN), and ingredients were supplied by: PDX (Danisco, Terre Haute, IN), GOS (Friesland Campina, Zwolle, The Netherlands) and SL (SAL-10; Arla Foods Ingredients, Aarhus, Denmark).
A total of n=105 male Sprague Dawley rats were used in this study with a subset of animals (n=40) used for sleep/wake analysis. Upon weaning (P21), rats were randomised into one of five treatment groups, based upon diet and exposure to a stressor, as follows:
The experimental protocol consisted of two phases a diet manipulation phase and a sleep-stressor phase. During the diet manipulation phase, rat weanlings were randomised to either the control diet or one of the three formulated diets. Rats were provided these diets from age P21 to P51, after which all animals were given standard chow. During this diet-manipulation phase, body weights were recorded twice per week and food consumption determined for weekly intervals.
The second phase of the protocol consisted of telemetric recordings, exposure to stressor, and behavioural assessment. Telemeters were implanted on P64 and undisturbed baseline recordings obtained on P84.
Rats in groups 2 to 5 were exposed to inescapable shock stress (uncontrollable stress paradigm) on P85 using previously published protocols (Greenwood et al., Behav Brain Res. 2012 Aug. 1; 233(2): 314-321). Briefly, rats were restrained in Plexiglass tubes and received ~100, 5 s tail shocks (1.5 mA) on a […] variable-interval schedule. Stress protocols were conducted during the beginning of the light period. After the end of the stress protocol, rats were returned to their home cages. Home-cage control animals (no stress) remained undisturbed during this period.

[1] = Dark period (ZT13-24), Baseline
[2] = Dark period (ZT13-24), Post-stress
[3] = Light period (ZT5-12), Baseline
[4] = Light period (ZT5-12), Post-stress

Substance: sialyllactose [SL]
- NREMS bout duration [1]: 1.3 ± 0.1 min
- NREMS bouts [1]: 11.9 ± 1.1 number/h
- NREMS duration [1]: 30.1 ± 3.0 % recording time
- REMS bout duration [1]: 0.9 ± 0.1 min
- REMS bouts [1]: 2.8 ± 0.4 number/h
- REMS duration [1]: 6.0 ± 0.9 % recording time
- Wake bout duration [1]: 10.9 ± 2.2 min
- Wake bouts [1]: 8.3 ± 0.6 number/h
- Wake duration [1]: 63.9 ± 3.8 % recording time
- NREMS bout duration [2]: 1.5 ± 0.1 min
- NREMS bouts [2]: 17.7 ± 1.3 number/h
- NREMS duration [2]: [43.7 ± 1.7**] % recording time
- REMS bout duration [2]: [1.3 ± 0.1*] min
- REMS bouts [2]: [5.5 ± 0.5**] number/h
- REMS duration [2]: [12.3 ± 1.0**] % recording time
- Wake bout duration [2]: 4.1 ± 0.8 min
- Wake bouts [2]: 10.4 ± 1.1 number/h
- Wake duration [2]: [43.9 ± 2.4**] % recording time
- NREMS bout duration [3]: 1.5 ± 0.1 min
- NREMS bouts [3]: 20.1 ± 1.5 number/h
- NREMS duration [3]: 51.0 ± 3.1 % recording time
- REMS bout duration [3]: 1.2 ± 0.1 min
- REMS bouts [3]: 5.3 ± 0.6 number/h
- REMS duration [3]: 12.6 ± 1.3 % recording time
- Wake bout duration [3]: 3.5 ± 1.1 min
- Wake bouts [3]: 10.1 ± 0.6 number/h
- Wake duration [3]: 36.4 ± 4.2 % recording time
- NREMS bout duration [4]: 2.1 ± 0.1 min
- NREMS bouts [4]: 16.8 ± 1.1 number/h
- NREMS duration [4]: 56.1 ± 2.1 % recording time
- REMS bout duration [4]: 1.6 ± 0.0 min
- REMS bouts [4]: 5.3 ± 0.7 number/h
- REMS duration [4]: 14.4 ± 1.7 % recording time
- Wake bout duration [4]: 3.0 ± 0.7 min
- Wake bouts [4]: 7.8 ± 0.6 number/h
- Wake duration [4]: 29.5 ± 3.5 % recording time
